Data from patent US5376688A, “Enhanced solubility pharmaceutical solutions” (R. P. Scherer Corporation, priority 1992, dated 1994).
Each block holds one compound with its values, some of them ahead of it. Where a SMILES comes first, the peptide text is derived from it.

Key:
[1] = Saturated aspartame solutions: solubility with hydrochloric acid; format: physicochemical; settings: for ASPARTAME SOLUBILITY (%): saturated solution
Source text: The following saturated aspartame solutions were made using aspartame for a model for an amphoteric pharmaceutical agent. […] These solutions are suitable for filling into soft gelatin capsules.

[2] = Saturated aspartame solutions: solubility with potassium hydroxide; format: physicochemical; settings: for ASPARTAME SOLUBILITY (%): saturated solution
Description: The following saturated aspartame solutions were prepared, using aspartame as a model of an amphoteric pharmaceutical agent. These solutions contain the indicated amount of aspartame, the indicated solvent and the indicated amount of potassium hydroxide. […] The solutions were suitable for filling into soft gelatin capsules.

[3] = Saturated ibuprofen solutions: solubility (weight percent) with potassium hydroxide

enhanced solubility (in words) ([1]; hydrochloric acid, each solvent): enhanced solubility was noted | ASPARTAME SOLUBILITY (%) ([1]; solvent LABRASOL, mole equivalent acid 0): 0.30% | ASPARTAME SOLUBILITY (%) ([1]; solvent LABRASOL, mole equivalent acid (HCl) 50 (so in the source)): 0.50% | ASPARTAME SOLUBILITY (%) ([1]; solvent PLURONIC L62, mole equivalent acid 0): 0.045% | ASPARTAME SOLUBILITY (%) ([1]; solvent PLURONIC L62, mole equivalent acid (HCl) 50 (so in the source)): 0.095% | ASPARTAME SOLUBILITY (%) ([1]; solvent TRANSCUTOL, mole equivalent acid 0): 0.43% | ASPARTAME SOLUBILITY (%) ([1]; solvent TRANSCUTOL, mole equivalent acid (HCl) 50 (so in the source)): 0.91% | ASPARTAME SOLUBILITY (%) ([2]; solvent LABRASOL, mole equivalent hydroxide 0): 0.30% | ASPARTAME SOLUBILITY (%) ([2]; solvent LABRASOL, mole equivalent hydroxide (KOH) 0.50): 0.60% | ASPARTAME SOLUBILITY (%) ([2]; solvent PLURONIC L62, mole equivalent hydroxide 0): 0.045% | ASPARTAME SOLUBILITY (%) ([2]; solvent PLURONIC L62, mole equivalent hydroxide (KOH) 0.50): 0.045% | ASPARTAME SOLUBILITY (%) ([2]; solvent TRANSCUTOL, mole equivalent hydroxide 0): 0.43% | ASPARTAME SOLUBILITY (%) ([2]; solvent TRANSCUTOL, mole equivalent hydroxide (KOH) 0.50): 0.68%
Compound: COC(=O)[C@H](Cc1ccccc1)NC(=O)[C@@H](N)CC(=O)O [aspartame] (H-Asp-Phe-OMe)
enhanced solubility (in words) ([2]; potassium hydroxide, except for Pluronic L62): showed enhanced solubility in the presence of the hydroxide species

IBUPROFEN SOLUBILITY (%) ([3]; solvent LABRASOL, mole equivalent hydroxide 0, saturated solution): 25.0% | IBUPROFEN SOLUBILITY (%) ([3]; solvent LABRASOL, mole equivalent hydroxide (KOH) 0.25, saturated solution): 40.0% | IBUPROFEN SOLUBILITY (%) ([3]; solvent LABRASOL, mole equivalent hydroxide (KOH) 0.5, saturated solution): 45.0% | IBUPROFEN SOLUBILITY (%) ([3]; solvent LABRASOL, mole equivalent hydroxide (KOH) 0.75, saturated solution): 42.5% | IBUPROFEN SOLUBILITY (%) ([3]; solvent LABRASOL, mole equivalent hydroxide (KOH) 1.0, saturated solution): 40.0% | IBUPROFEN SOLUBILITY (%) ([3]; solvent PLUROL OLEIQUE, mole equivalent hydroxide 0, saturated solution): 15.0% | IBUPROFEN SOLUBILITY (%) ([3]; solvent PLUROL OLEIQUE, mole equivalent hydroxide (KOH) 0.5, saturated solution): 30.0% | IBUPROFEN SOLUBILITY (%) ([3]; solvent PLURONIC L62, mole equivalent hydroxide 0, saturated solution): 10.0% | IBUPROFEN SOLUBILITY (%) ([3]; solvent PLURONIC L62, mole equivalent hydroxide (KOH) 0.25, saturated solution): 15.0% | IBUPROFEN SOLUBILITY (%) ([3]; solvent PLURONIC L62, mole equivalent hydroxide (KOH) 0.5, saturated solution): 20.0% | IBUPROFEN SOLUBILITY (%) ([3]; solvent PLURONIC L62, mole equivalent hydroxide (KOH) 0.75, saturated solution): 27.5% | IBUPROFEN SOLUBILITY (%) ([3]; solvent PLURONIC L62, mole equivalent hydroxide (KOH) 1.0, saturated solution): 30.0% | IBUPROFEN SOLUBILITY (%) ([3]; solvent TRANSCUTOL, mole equivalent hydroxide 0, saturated solution): 42.5% | IBUPROFEN SOLUBILITY (%) ([3]; solvent TRANSCUTOL, mole equivalent hydroxide (KOH) 0.25, saturated solution): 55.0% | IBUPROFEN SOLUBILITY (%) ([3]; solvent TRANSCUTOL, mole equivalent hydroxide (KOH) 0.5, saturated solution): 60.0% | IBUPROFEN SOLUBILITY (%) ([3]; solvent TRANSCUTOL, mole equivalent hydroxide (KOH) 0.75, saturated solution): 52.5% | IBUPROFEN SOLUBILITY (%) ([3]; solvent TRANSCUTOL, mole equivalent hydroxide (KOH) 1.0, saturated solution): 52.5%
Compound: CC(C)Cc1ccc(C(C)C(=O)O)cc1 (stereo not shown) [ibuprofen]
